Read-outs that look alike come from different tables or passages of the source.
Key:
[1] = tested on: P. aeruginosa strain CFS-1292; assay: MIC in presence of mouse, rat, rabbit and human serum ([…] each); format: cell-based, Pseudomonas aeruginosa; details: P. aeruginosa CFS-1292
Protocol: The activity of several Chp peptides against P. aeruginosa strain CFS-1292 in animal serum was evaluated. […] Rat, mouse, and rabbit serum were all obtained from pooled gender samples.

[2] = tested on: Klebsiella pneumoniae; format: cell-based
Protocol: (§1) Determination of Minimal Inhibitory Concentrations (MIC).
(§2) Additional MIC testing was performed for several peptides against the ESKAPE pathogens Escherichia coli, Enterobacter cloacae, Klebsiella pneumoniae, and Acinetobacter baumannii, in CAA supplemented with human serum (Table D).

[3] = tested on: M. avium; assay: 45 hr MIC against M. avium (NTM); format: cell-based, Mycobacterium avium; details: M. avium Chester ATCC 700898
[4] = tested on: Pseudomonas aeruginosa, Escherichia coli, Enterobacter cloacae, Klebsiella pneumoniae, and Acinetobacter baumannii; assay: MIC against a range of Gram-negative organisms (statements covering several species); format: cell-based; details: Tables 40-44 isolates
Protocol: as §1, §2

[5] = tested on: P. aeruginosa strain CFS-1292; assay: MIC at pH 6, pH 7 and pH 8; format: cell-based, Pseudomonas aeruginosa
Protocol: The Chp peptides were further evaluated at varying pH levels. The MIC values were determined at pH 6, pH 7, and pH 8 for 18 different Chp peptides against P. aeruginosa strain CFS-1292. […]

[6] = tested on: P. aeruginosa strain CFS-1292; assay: MIC in presence and absence of NaCl (140 mM); format: cell-based, Pseudomonas aeruginosa
Protocol: Certain Chp peptides were evaluated over a range of physiological NaCl levels and pH values, and were further evaluated for activity in the presence of various divalent cations.

[7] = Stability assessment in 100% CAA; format: in vitro ADME; parameters: unit not given beside the values
Protocol: Stability was assessed after incubation in 100% human serum at 37° C. after 10 minutes, 1 hour, and 2 hours.
Stability assessment was further conducted in 100% CAA and rabbit serum using the same methodology discussed above.

[8] = tested on: P. aeruginosa strain CFS-1292; assay: MIC in presence of divalent cations (calcium chloride, magnesium sulfate); format: cell-based, Pseudomonas aeruginosa
Protocol: Next, Chp peptides were evaluated in the presence of different divalent cations. […]; (2) in the presence of 2 mM calcium chloride alone; (3) in the presence of 1 mM magnesium sulfate alone; and (4) in the presence of both 2 mM calcium chloride and 1 mM magnesium sulfate. […]

[9] = tested on: M. smegmatis; assay: 45 hr MIC against M. smegmatis (NTM), Mueller Hinton broth; format: cell-based, Mycobacterium smegmatis
[10] = tested on: M. intracellulare; assay: 45 hr MIC against M. intracellulare (NTM); format: cell-based, Mycobacterium intracellulare; details: M. intracellulare (Cuttino and McCabe) Runyon ATCC 13950
[11] = tested on: M. scrofulaceum; assay: 45 hr MIC against M. scrofulaceum (NTM); format: cell-based, Mycobacterium scrofulaceum; details: M. scrofulaceum Prissick and Masson ATCC 19981
[12] = tested on: S. maltophilia; assay: MIC against S. maltophilia isolates; format: cell-based, Stenotrophomonas maltophilia
How it was run: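 MIC in μg/mL for Chp peptides across several S. maltophilia isolates, n denoting the number of isolates tested.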

[13] = tested on: Escherichia coli; assay: microbe, parasite or virus in culture; format: cell-based
How it was run: (§3)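 Peptide MICs were determined by growth inhibition in CAA medium supplemented with human serum.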

[14] = tested on: Enterobacter cloacae; assay: microbe, parasite or virus in culture; format: cell-based
How it was run: as §3

[15] = tested on: Klebsiella pneumoniae; assay: microbe, parasite or virus in culture; format: cell-based; details: CAA without human serum
[16] = tested on: M. fortuitum; assay: 45 hr MIC against M. fortuitum (NTM); format: cell-based, Mycobacterium fortuitum; details: M. fortuitum subsp. Fortuitum da Costa Cruz. ATCC 6841
[17] = tested on: Acinetobacter baumannii; assay: microbe, parasite or virus in culture; format: cell-based
[18] = tested on: Pseudomonas aeruginosa; assay: microbe, parasite or virus in culture; format: cell-based; details: for MIC: CAA without human serum
[19] = tested on: P. aeruginosa strain CFS-1292; assay: MIC in presence and absence of Survanta pulmonary surfactant; format: cell-based, Pseudomonas aeruginosa
[20] = K. pneumoniae isolates (n per peptide in table)
[21] = S. maltophilia isolates (n per peptide in table)
[22] = E. coli isolates (n per peptide in table)
[23] = E. cloacae isolates (n per peptide in table)
[24] = A. baumannii isolates (n per peptide in table)
[25] = P. aeruginosa isolates (n per peptide in table)

Question: What does the source list for “MRLKMARRRYRLPRRRSRRLFSRTALRMHPRNRLRRIMRGGIRF [Chp2]”?
Answer: MIC BALB/C Mouse Serum ([1]; BALB/C mouse serum […]): 32 mg/L; MIC CAA ([1]; CAA): 0.5 mg/L; MIC New Zealand White Rabbit Serum ([1]; New Zealand White rabbit serum […]): 2 mg/L; MIC Sprague Dawley Rat Serum ([1]; Sprague Dawley rat serum […]): 2 mg/L; MIC Human Serum ([1]; human serum […]): 0.5 mg/L; MIC50 [2, 20]: 0.5 mg/L; MIC100 [2, 20]: 1 mg/L; MIC Range [2, 20]: 0.125 to 1 mg/L; MIC ([2]; Klebsiella pneumoniae HM-44, CAA supplemented with human serum): 0.125 mg/L; 45 hr MIC [3]: 1 mg/L; activity (good = MIC100 of ≤4) against all of P. aeruginosa, K. pneumoniae, A. baumannii, E. cloacae, and E. coli [4]: good activity; MIC ([5]; CAA media (pH 7)): 0.25 mg/L; MIC ([5]; pH 6): 0.25 mg/L; MIC ([5]; pH 7): 0.5 mg/L; MIC ([5]; pH 8): 0.5 mg/L; Fold change in MIC ([6]; CAA + 140 mM NaCl versus CAA without added NaCl): 1; MIC, CAA + 140 mM NaCl ([6]; CAA + 140 mM NaCl, P. aeruginosa CFS-1292): 0.5 mg/L; MIC, CAA (no added NaCl) ([6]; CAA, no added NaCl, P. aeruginosa CFS-1292): 0.5 mg/L; MIC (100% CAA) [7]: 0.25; MIC ([8]; CAA media + 1 mM MgSO4): 0.5 mg/L; MIC ([8]; CAA media + 2 mM CaCl2): 0.25 mg/L; MIC ([8]; CAA media + + 1 mM MgSO4): 0.25 mg/L; MIC ([8]; CAA media alone): 0.5 mg/L; 45 hr MIC ([9]; M. smegmatis MC^2 155, Run #1): 4 mg/L; 45 hr MIC ([9]; M. smegmatis MC^2 155, Run #2): 4 mg/L; 45 hr MIC [10]: 0.5 mg/L; 45 hr MIC [11]: 0.5 mg/L; MIC50 [12, 21]: 0.5 mg/L; MIC100 [12, 21]: 1 mg/L; MIC Range [12, 21]: 0.5 to 1 mg/L; activity against S. maltophilia ([12]; Table 45 isolates): active; MIC ([13]; E. coli (ATCC 25922, MIC control strain), RSC 813, CAA without human serum): 2 mg/L; MIC ([13]; E. coli (HM346, colon, Crohn's disease), RSC 1212, CAA without human serum): 2 mg/L; MIC50 [13, 22]: 0.5 mg/L; MIC100 [13, 22]: 2 mg/L; MIC Range [13, 22]: 0.25 to 2 mg/L; MIC ([13]; Escherichia coli ATCC 25922, CAA supplemented with human serum): 1 mg/L; MIC50 [14, 23]: 0.5 mg/L; MIC100 [14, 23]: 1 mg/L; MIC Range [14, 23]: 0.125 to 1 mg/L; MIC ([14]; Enterobacter cloacae (ATCC 13047, MIC control strain), RSC 1240, CAA without human serum): 4 mg/L; MIC ([14]; Enterobacter cloacae ATCC 13047, CAA supplemented with human serum): 1 mg/L; MIC ([15]; Klebsiella pneumoniae (ATCC 10031, MIC control strain), RSC 814): 4 mg/L; MIC ([15]; Klebsiella pneumoniae (g2-3 HM35K), RSC 1138): 4 mg/L; MIC ([15]; Klebsiella sp. (HM-44; colon, Crohn's disease), RSC 1139): 2 mg/L; MIC ([15]; Klebsiella spp. (HM-223; gut of Crohn's disease patient), RSC 1131): 4 mg/L; 45 hr MIC [16]: 2 mg/L; MIC50 [17, 24]: 0.5 mg/L; MIC100 [17, 24]: 0.5 mg/L; MIC Range [17, 24]: 0.25 to 1 mg/L; MIC ([17]; Acinetobacter baumannii (clinical isolate HSS), RSC 30, CAA without human serum): 2 mg/L; MIC ([17]; Acinetobacter baumannii (clinical isolate HSS), RSC 32, CAA without human serum): 2 mg/L; MIC ([17]; Acinetobacter baumannii ATCC BAA 747, CAA supplemented with human serum): 0.125 mg/L; MIC ([18]; P. aeruginosa 453 (Human clinical isolate, HSS), RSC 1292): 4 mg/L; MIC ([18]; P. aeruginosa (ATCC 14213, human hip wound), RSC 1111): 4 mg/L; MIC ([18]; P. aeruginosa (ATCC 15152, abscess in middle ear), RSC 1110): 4 mg/L; MIC ([18]; P. aeruginosa (ATCC 15692, infected wound), RSC 489): 4 mg/L; MIC ([18]; P. aeruginosa (ATCC 15692, infected wound), RSC 1115): 4 mg/L; MIC ([18]; P. aeruginosa (ATCC 17646, human liver abscess), RSC 1109): 4 mg/L; MIC ([18]; P. aeruginosa (ATCC 19142, tracheobronchial secretion), RSC 1108): 2 mg/L; MIC ([18]; P. aeruginosa (ATCC 25102, bacteriophage host), RSC 1114): 4 mg/L; MIC ([18]; P. aeruginosa (ATCC 27853, MIC control strain), RSC 815): 4 mg/L; MIC ([18]; P. aeruginosa (ATCC BAA-27, lab strain), RSC 1113): 4 mg/L; MIC ([18]; P. aeruginosa (PAO1, alternate source, HER1018), RSC 490): 4 mg/L; MIC50 [18, 25]: 1 mg/L; MIC100 [18, 25]: 1 mg/L; MIC Range [18, 25]: 0.25 to 1 mg/L; MIC ([19]; CAA media + 0.19 mg/mL Survanta): 1 mg/L; MIC ([19]; CAA media + […] Survanta): 1 mg/L; MIC ([19]; CAA media alone): 0.5 mg/L
